Test results from patent publication US9340577B2, “HLA binding motifs and peptides and their uses” (priority 1992, dated 2016).
No end group written: not given here.

Columns and labels:
Experiment in all cases: biochemical
Assay type in all cases: binding
HLA-A11 (A*1101) = HLA-A11 (A*1101) (Homo sapiens, UniProt P04439, A114D/D185E/E176A/F33Y/L180Q/S129P/T187R); parameters: A11: unit not given here
HLA-A*0201 (HLA-A2.1) = HLA-A*0201 (HLA-A2.1) (Homo sapiens, UniProt P04439, D140Y/D185E/D98H/E176V/E277Q/G131W/G231S/I119V/I121R/I166T/I218V/L300P/L318F/N151K/N90K/P208A/P217A/Q86G/Q94H/R138H/R169H/T345S)
HLA-A3.2 (A*0301) = HLA-A3.2 (A*0301) (Homo sapiens, UniProt P04439); conditions: for A3.2: Table 164, MAGE peptides, binding value to HLA-A3.2, no unit given
A*3301 = A*3301 (Homo sapiens, UniProt P04439, A270S/D185E/E176V/E277Q/E87N/F33T/G231S/H175R/I121M/I218V/I322F/K168Q/K210R/L300P/L318F/M331R/P217A/Q86R/Q94H/R138Q/T323A/T345S/T97I/V358M/Y195H)
A*6801 = A*6801 (Homo sapiens, UniProt P04439, A269V/D185E/E176V/E277Q/E87N/F33Y/G231S/I121M/I166T/I218V/L180W/L300P/L318F/N151K/P208A/P217A/Q86R/R169H/T345S)
A31 (A*3101) = A31 (A*3101) (Homo sapiens, UniProt P04439, A270S/D185E/E176V/E277Q/F33T/G231S/G80R/H175R/I121M/I218V/I322F/K168Q/L300P/L318F/M331R/P217A/Q94H/R138Q/T323A/T345S/T97I/V358M)

Row | Substance | A11 (HLA-A11 (A*1101)) | A2.1 (HLA-A*0201 (HLA-A2.1)) | A3.2 (HLA-A3.2 (A*0301)) | IC50 (HLA-A11 (A*1101)) | IC50 (A*3301) | IC50 (HLA-A3.2 (A*0301)) | IC50 (A*6801) | IC50 (A31 (A*3101)) | A*1101 binding (HLA-A11 (A*1101)) | A*0301 binding (HLA-A3.2 (A*0301); Table 11, binding value, no unit)
1 | LVFGIDVKEA | 0 | 0.0002 | <0.0002 | – | – | – | – | – | – | –
2 | QQMNMCQWIK [Peptide 88.0186] | – | – | – | 20 nM | 13100 nM | 346 nM | 197 nM | – | – | –
3 | IQIKRRQQK [Peptide 9012.0207] | – | – | – | 20 nM | > 20000 nM | 29 nM | > 20000 nM | – | – | –
4 | QVLHLLKRK [Peptide 88.0365] | – | – | – | 320 nM | 1850 nM | 1550 nM | 801 nM | – | – | –
5 | GLYYIHGNEK [Peptide 1589.40] | – | – | – | 18 nM | 4510 nM | 17 nM | – | 141 nM | – | –
6 | QTRSLTEILK [Peptide 9012.0217] | – | – | – | 96 nM | 19800 nM | 250 nM | – | 3170 nM | – | –
7 | FTDLTIVYR [Peptide 78.0313] | – | – | – | 2660 nM | 585 nM | > 20000 nM | – | 602 nM | – | –
8 | KTLEERVKK [Peptide 78.0294] | – | – | – | 160 nM | > 20000 nM | 302 nM | > 20000 nM | – | – | –
9 | CFYSPALNK [Peptide 1556.43] | – | – | – | 74 nM | 122 nM | 127 nM | 1450 nM | – | – | –
10 | DSNACAFLK [Peptide 1587.33] | – | – | – | 303 nM | 39 nM | 1420 nM | 68 nM | – | – | –
11 | LNKMFCQLAR [Peptide 1556.49] | – | – | – | 8880 nM | – | 11100 nM | 1800 nM | – | – | –
12 | SLARRHIAR [Peptide 9017.0067] | – | – | – | 1100 nM | 30 nM | 66 nM | – | 1.5 nM | – | –
13 | FLGALKSFLK [Peptide 88.0148] | – | – | – | 120 nM | – | 27 nM | – | 327 nM | – | –
14 | ATLQDIVLH [Peptide 78.0278] | – | – | – | 152 nM | > 20000 nM | 4510 nM | > 20000 nM | – | – | –
15 | VSYWGVYYIK [Peptide 1589.25] | – | – | – | 3 nM | 11500 nM | 109 nM | 24 nM | – | – | –
16 | ALTALITPKK [Peptide 9017.0230] | – | – | – | 6.8 nM | > 20000 nM | 44 nM | – | 7410 nM | – | –

Row | Substance | A11 (HLA-A11 (A*1101)) | A2.1 (HLA-A*0201 (HLA-A2.1)) | A3.2 (HLA-A3.2 (A*0301)) | IC50 (HLA-A11 (A*1101)) | IC50 (A*3301) | IC50 (HLA-A3.2 (A*0301)) | IC50 (A*6801) | IC50 (A31 (A*3101)) | A*1101 binding (HLA-A11 (A*1101)) | A*0301 binding (HLA-A3.2 (A*0301); Table 11, binding value, no unit)
17 | IVFIEYRKIR [Peptide 9017.0245] | – | – | – | 1470 nM | 312 nM | 4370 nM | – | 12 nM | – | –
18 | SLYGKTLEER [Peptide 78.0142] | – | – | – | 1730 nM | 5500 nM | 56 nM | 178 nM | – | – | –
19 | STWHWTSDNK [Peptide 1589.22] | – | – | – | 17 nM | > 20000 nM | 161 nM | 18 nM | – | – | –
20 | TVDVYMIMVK [Peptide 9012.0257] | – | – | – | 95 nM | > 20000 nM | 11100 nM | – | > 20000 nM | – | –
21 | STAAALYWYK [Peptide 1587.06] | – | – | – | 1.6 nM | – | 4.5 nM | 5.9 nM | – | – | –
22 | QLALEALNK [Peptide 88.0424] | – | – | – | 155 nM | > 20000 nM | 166 nM | – | > 20000 nM | – | –
23 | 34.0050 (RVCACPGR) [Peptide 34.0050] | – | – | – | – | – | – | – | – | 0.0490 | 0.3500
24 | LQMALETLSK [Peptide 88.0214] | – | – | – | 22 nM | > 20000 nM | 559 nM | – | 10600 nM | – | –
25 | EVYDGREHSA | 0 | 0 | <0.0002 | – | – | – | – | – | – | –
26 | GVSIEWRQR [Peptide 9017.0087] | – | – | – | 1220 nM | 2090 nM | 13100 nM | – | 335 nM | – | –
27 | RLIDRIRER [Peptide 9017.0123] | – | – | – | 137 nM | 937 nM | 36 nM | – | 4.6 nM | – | –
28 | VFGIDVKEA | 0 | <0.0002 | <0.0002 | – | – | – | – | – | – | –
29 | STWHWTSDDK [Peptide 1589.43] | – | – | – | 47 nM | > 20000 nM | 342 nM | – | 5300 nM | – | –
30 | AAEGVGAVSR [Peptide 9017.0188] | – | – | – | 992 nM | 4120 nM | 16000 nM | – | 2680 nM | – | –
31 | ISKQPLPQTR [Peptide 9017.0207] | – | – | – | > 20000 nM | 2580 nM | > 20000 nM | – | 83 nM | – | –
32 | TVWNPPTTAK [Peptide 1556.03] | – | – | – | 26 nM | 1580 nM | 25 nM | – | 9190 nM | – | –
